Experimental data taken from patent US7150969B2 (Rosetta Inpharmatics LLC, priority 2004, dated 2006).
Each block holds one compound with its values, some of them ahead of it.

Legend:
[1] = molecular target: T1, ACC2sv1 (Homo sapiens, UniProt O00763, V2141I); assay: 14CO2 fixation ACC activity assay, ACC2sv1; assay type: biochemical; conditions: 37° C., 40 minutes, pH 7.5, 20 mM citrate; read-out: Km of ACC2sv1 against substrate
T1 construct: to yield a full-length ACC2sv1 clone; made in house; host or cells: mouse mammary carcinoma cell line FM-3A (pEF vector, G418 selection)
Text: (§1) ACC2 and ACC2sv1 clones from cloning Method 2 of Example 2 were digested with AvrII and PmeI restriction enzymes and then subcloned into pEF cDNA expression vector (Invitrogen, Carlsbad, Calif.) which was digested by SpeI and EcoRV. The ACC2 and ACC2sv1 expression vectors were introduced into a mouse mammary carcinoma cell line FM-3A (RIKEN cell bank, #RCB0086) using the Lipofectaimine 2000 (Invitrogen, Carlsbad, Calif.) or Effectene Transfection Reagent (Qiagen, Hilden, Germany), according to manufacturer's instructions. […] ACC2 and ACC2sv1 protein levels were measured by Western blot analysis using HRP-conjugated streptavidin (Invitrogen, Carlsbad, Calif.). […]
(§2) The following protein extraction and purification procedures were performed at 4° C. unless noted. […] The remaining proteins were eluted from the column by imidazole at 0–500 mM, and the elution fractions were monitored by spectrophotometry at 280 nm. ACC1, ACC2, and ACC2sv1 protein and activity in each fraction were measured.
(§3) ACC1, ACC2, and ACC2sv1 activity were measured by a standard ^14CO2 fixation assay that measures the incorporation of [^14C]bicarbonate into [^14C]malonyl-CoA, and separates the product from unused substrate at the end of the reaction through acidification, which serves to both quench the reaction and remove residual radiolabeled substrate as ^14CO2. […]

[2] = molecular target: T2, ACC1 (Homo sapiens, UniProt Q13085); assay: 14CO2 fixation ACC activity assay, ACC1; assay type: biochemical; conditions: 37° C., 40 minutes, pH 7.5, 20 mM citrate; read-out: Km of ACC1 against substrate
T2 construct: to produce a full length ACC1 cDNA clone; V5-His (vector pcDNA5/FRT/V5-His TOPO) (C); made in house; host or cells: Sf9 insect cells (baculovirus, pBacPAK9)
Description: ACC1 clone from Example 2 was digested with AvrII and PmeI restriction enzymes and then subcloned into pBacPAK9 (BD Biosciences, Mountainview, Calif.) transfer vector, which was then digested with XbaI and StuI for generating baculovirus. The viral particles were generated in Sf9 insect cells using the reagents and instructions provided by the BacPAK Baculovirus Expression System (BD Biosciences, Mountainview, Calif.).
The Sf9 cells were grown in Grace's Insect Cell Culture Medium (Invitrogen, Carlsbad, Calif.) containing 10% fetal bovine serum, 0.1 mg/ml kanamicin, and 0.1% PLURONIC® F-68 (Invitrogen, Carlsbad, Calif.) at 30° C. and 5% CO2. […]
as §2, §3

[3] = molecular target: T3, ACC2 (Homo sapiens, UniProt O00763); assay: 14CO2 fixation ACC activity assay, ACC2; assay type: biochemical; conditions: 37° C., 40 minutes, pH 7.5, 20 mM citrate; read-out: Km of ACC2 against substrate
T3 construct: V5-His (vector pcDNA5/FRT/V5-His TOPO) (C); made in house; host or cells: mouse mammary carcinoma cell line FM-3A (pEF vector, G418 selection)
Text: as §1, §2, §3

[4] = tested on: ACC2; conditions: cited from earlier work
[5] = tested on: ACC1; conditions: cited from earlier work
[6] = tested on: ACC; conditions: ESP 55016 converted to ESP 55016-CoA; cited from earlier work
[7] = tested on: fatty acid synthesis and fatty acid oxidation; conditions: cited from earlier work
[8] = rat model of diabetic dyslipidemia; cited from earlier work
[9] = tested on: ACCs from plants; conditions: cited from earlier work

T1 sequence (O00763 1-2256 isoform O00763-3 V1939I): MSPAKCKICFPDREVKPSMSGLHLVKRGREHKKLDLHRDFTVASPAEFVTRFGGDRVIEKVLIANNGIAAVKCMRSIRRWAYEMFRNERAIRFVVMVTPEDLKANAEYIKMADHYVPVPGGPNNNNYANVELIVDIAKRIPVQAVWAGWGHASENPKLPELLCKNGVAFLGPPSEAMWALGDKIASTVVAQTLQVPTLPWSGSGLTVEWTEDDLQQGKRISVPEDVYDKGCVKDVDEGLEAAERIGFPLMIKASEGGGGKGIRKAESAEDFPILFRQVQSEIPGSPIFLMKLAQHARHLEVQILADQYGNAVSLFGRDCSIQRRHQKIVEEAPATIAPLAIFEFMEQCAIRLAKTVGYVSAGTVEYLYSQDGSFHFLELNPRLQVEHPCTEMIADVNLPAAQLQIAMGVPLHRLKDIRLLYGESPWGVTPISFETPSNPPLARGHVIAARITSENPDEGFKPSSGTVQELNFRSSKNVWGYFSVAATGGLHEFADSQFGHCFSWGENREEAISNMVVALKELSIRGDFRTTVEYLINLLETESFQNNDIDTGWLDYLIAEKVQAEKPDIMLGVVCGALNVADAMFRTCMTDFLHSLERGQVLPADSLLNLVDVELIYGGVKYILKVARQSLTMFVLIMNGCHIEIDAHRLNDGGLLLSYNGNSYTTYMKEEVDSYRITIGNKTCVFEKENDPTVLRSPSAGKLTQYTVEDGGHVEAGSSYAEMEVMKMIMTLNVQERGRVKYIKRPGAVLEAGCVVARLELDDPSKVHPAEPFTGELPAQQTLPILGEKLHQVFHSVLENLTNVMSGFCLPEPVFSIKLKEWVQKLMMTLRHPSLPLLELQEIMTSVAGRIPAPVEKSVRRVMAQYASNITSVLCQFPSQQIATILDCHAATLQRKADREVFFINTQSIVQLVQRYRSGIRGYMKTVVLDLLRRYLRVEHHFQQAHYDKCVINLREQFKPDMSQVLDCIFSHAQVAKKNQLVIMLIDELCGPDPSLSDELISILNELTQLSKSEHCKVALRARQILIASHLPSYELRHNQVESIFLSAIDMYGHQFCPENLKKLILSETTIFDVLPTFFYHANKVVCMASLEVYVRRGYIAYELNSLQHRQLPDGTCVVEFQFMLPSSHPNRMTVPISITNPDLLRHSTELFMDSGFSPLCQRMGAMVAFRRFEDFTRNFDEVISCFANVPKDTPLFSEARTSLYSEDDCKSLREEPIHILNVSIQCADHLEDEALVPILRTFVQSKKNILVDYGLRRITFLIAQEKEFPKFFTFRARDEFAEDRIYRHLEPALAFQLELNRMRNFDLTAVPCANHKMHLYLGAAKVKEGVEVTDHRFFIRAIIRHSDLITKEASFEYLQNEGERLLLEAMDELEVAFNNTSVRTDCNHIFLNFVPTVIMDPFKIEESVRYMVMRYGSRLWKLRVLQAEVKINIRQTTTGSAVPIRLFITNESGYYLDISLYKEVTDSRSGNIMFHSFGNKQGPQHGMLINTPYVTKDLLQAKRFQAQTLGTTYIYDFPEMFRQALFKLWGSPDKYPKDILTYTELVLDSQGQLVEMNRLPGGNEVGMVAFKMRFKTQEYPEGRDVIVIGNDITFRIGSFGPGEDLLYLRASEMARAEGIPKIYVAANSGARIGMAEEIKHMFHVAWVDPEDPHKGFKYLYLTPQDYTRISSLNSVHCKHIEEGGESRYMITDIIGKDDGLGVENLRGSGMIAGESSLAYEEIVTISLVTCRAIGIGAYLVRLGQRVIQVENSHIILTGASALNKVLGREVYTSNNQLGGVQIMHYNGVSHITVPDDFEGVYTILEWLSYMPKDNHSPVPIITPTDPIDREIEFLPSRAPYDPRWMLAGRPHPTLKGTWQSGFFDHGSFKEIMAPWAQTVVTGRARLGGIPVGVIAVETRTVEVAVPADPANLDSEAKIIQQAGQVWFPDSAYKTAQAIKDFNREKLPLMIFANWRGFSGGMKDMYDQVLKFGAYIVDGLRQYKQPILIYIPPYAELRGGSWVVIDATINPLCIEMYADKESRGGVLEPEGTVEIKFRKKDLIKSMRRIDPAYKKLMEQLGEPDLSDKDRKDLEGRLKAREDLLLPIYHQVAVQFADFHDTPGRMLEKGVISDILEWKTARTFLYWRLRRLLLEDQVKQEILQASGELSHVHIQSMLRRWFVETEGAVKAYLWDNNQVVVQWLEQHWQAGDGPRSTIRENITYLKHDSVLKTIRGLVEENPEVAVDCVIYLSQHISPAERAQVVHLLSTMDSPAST
T3 sequence (O00763 whole entry): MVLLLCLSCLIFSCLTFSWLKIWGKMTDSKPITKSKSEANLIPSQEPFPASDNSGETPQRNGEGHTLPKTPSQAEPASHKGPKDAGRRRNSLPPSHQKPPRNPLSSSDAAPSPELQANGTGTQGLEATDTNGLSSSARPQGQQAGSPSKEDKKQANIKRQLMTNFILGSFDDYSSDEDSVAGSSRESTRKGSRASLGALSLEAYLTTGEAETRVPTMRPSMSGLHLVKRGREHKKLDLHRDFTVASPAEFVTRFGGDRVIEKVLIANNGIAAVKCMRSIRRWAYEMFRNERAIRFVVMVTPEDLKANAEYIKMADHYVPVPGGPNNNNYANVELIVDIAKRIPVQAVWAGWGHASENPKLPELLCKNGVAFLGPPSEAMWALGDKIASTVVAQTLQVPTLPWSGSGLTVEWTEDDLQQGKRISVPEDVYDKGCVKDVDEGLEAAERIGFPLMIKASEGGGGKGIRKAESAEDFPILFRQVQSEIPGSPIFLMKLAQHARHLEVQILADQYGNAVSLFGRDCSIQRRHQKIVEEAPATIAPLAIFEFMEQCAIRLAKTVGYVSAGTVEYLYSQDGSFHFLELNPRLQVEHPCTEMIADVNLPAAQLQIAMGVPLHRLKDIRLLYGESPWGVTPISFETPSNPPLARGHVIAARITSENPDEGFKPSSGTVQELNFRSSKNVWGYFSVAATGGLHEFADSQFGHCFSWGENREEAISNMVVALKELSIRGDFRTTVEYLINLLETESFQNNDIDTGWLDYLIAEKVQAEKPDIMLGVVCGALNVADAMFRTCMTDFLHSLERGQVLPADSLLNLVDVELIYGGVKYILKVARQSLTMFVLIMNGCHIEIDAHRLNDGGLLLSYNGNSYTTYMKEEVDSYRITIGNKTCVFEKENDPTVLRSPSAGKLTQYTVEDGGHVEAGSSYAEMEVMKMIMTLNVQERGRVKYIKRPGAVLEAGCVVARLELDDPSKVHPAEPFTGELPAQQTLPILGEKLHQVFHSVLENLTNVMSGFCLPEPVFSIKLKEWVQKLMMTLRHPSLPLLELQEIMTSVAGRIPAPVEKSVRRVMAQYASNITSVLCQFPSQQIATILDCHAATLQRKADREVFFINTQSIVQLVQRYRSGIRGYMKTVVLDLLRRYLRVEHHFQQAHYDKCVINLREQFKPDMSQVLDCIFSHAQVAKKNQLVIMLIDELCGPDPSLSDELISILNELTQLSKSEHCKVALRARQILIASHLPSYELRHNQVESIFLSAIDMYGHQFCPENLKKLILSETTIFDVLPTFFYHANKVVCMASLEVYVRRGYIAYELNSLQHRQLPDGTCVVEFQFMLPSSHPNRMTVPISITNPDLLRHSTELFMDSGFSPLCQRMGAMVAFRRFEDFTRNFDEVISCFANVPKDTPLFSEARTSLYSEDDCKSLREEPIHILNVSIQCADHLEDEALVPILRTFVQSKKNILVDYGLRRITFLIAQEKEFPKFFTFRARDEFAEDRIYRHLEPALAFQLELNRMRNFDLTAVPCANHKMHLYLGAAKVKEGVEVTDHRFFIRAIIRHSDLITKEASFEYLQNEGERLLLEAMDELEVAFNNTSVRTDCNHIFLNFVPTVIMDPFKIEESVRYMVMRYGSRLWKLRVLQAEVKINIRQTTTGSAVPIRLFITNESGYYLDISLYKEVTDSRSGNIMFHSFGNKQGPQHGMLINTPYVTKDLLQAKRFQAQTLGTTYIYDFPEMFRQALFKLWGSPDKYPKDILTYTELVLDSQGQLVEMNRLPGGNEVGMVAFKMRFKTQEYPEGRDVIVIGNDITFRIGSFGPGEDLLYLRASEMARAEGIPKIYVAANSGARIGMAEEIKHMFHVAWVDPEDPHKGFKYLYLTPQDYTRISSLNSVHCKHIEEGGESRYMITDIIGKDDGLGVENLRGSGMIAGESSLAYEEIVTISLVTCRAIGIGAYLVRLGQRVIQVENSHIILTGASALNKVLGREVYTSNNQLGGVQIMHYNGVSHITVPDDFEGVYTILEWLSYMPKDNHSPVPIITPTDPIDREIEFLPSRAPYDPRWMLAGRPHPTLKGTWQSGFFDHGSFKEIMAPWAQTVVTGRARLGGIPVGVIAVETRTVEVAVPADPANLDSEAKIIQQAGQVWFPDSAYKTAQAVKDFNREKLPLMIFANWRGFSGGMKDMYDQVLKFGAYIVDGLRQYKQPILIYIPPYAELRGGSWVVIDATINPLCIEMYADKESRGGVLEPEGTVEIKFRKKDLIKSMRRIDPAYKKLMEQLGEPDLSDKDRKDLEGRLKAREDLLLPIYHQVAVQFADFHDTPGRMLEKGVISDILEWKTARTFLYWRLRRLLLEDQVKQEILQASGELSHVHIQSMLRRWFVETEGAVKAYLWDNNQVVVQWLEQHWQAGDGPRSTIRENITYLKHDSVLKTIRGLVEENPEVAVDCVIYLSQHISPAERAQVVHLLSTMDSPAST

SMILES: Nc1ncnc2c1ncn2[C@@H]1O[C@H](COP(=O)(O)OP(=O)(O)OP(=O)(O)O)[C@@H](O)[C@H]1O [ATP]
Km [1]: 109 µM
Km [2]: 54 µM
Km [3]: 44 µM

SMILES: CCN(CC)C(=O)[C@@H]1CCCN(C2CCN(C(=O)c3c4ccccc4cc4ccccc34)CC2)C1 [CP-610431]
Inhibition of ACC2 [4]: inhibit
Inhibition of ACC1 [5]: inhibit

SMILES: O=C(c1c2ccccc2cc2ccccc12)N1CCC(N2CCC[C@@H](C(=O)N3CCOCC3)C2)CC1 [CP-640186]
Inhibition of ACC2 [4]: inhibit
Inhibition of ACC1 [5]: inhibit

SMILES: CC(C)(CCCCCC(O)CCCCCC(C)(C)C(=O)SCCNC(=O)CCNC(=O)[C@H](O)C(C)(C)COP(=O)(O)OP(=O)(O)OC[C@H]1O[C@@H](n2cnc3c(N)ncnc32)[C@H](O)[C@@H]1OP(=O)(O)O)C(=O)O (some centres unmarked) [ESP 55016-CoA]
Inhibition of ACC activity [6]: directly inhibits

SMILES: CC(C)(CCCCCC(O)CCCCCC(C)(C)C(=O)O)C(=O)O [ESP 55016]
Fatty acid oxidation [7]: enhanced
Fatty acid synthesis [7]: inhibited
Serum lipid levels [8]: favorably alter

Km [1]: 6510 µM
Km [2]: 6470 µM
Km [3]: 2890 µM
SMILES: O=C(O)O [HCO3]

SMILES: CC(Oc1ccc(Oc2ccc(Cl)cc2Cl)cc1)C(=O)O (centres unmarked) [diclofop]
Inhibition of ACCs from plants [9]: potent inhibitors

SMILES: CC(Oc1ccc(Oc2ncc(C(F)(F)F)cc2Cl)cc1)C(=O)O (centres unmarked) [haloxyfop]
Inhibition of ACCs from plants [9]: potent inhibitors

SMILES: CCC/C(=N\OCC)C1=C(O)CC(CC(C)SCC)CC1=O (centres unmarked) [sethoxydim]
Inhibition of ACCs from plants [9]: potent inhibitors
